Measured values as given in US10757937B2, “Sulfonamides that activate ABA receptors” (The Regents of the University of California, priority 2014, dated 2020).
Like-named read-outs stand apart in the source and are kept apart here.

What was measured:
PYL4 = target: T1, PYL4 (Arabidopsis thaliana, UniProt O80920); assay: receptor-mediated PP2C (HAB1) inhibition in vitro assay; type: biochemical; details: compound at 25 μM; control without agonist = 100%
T1 construct: 6X-His; made in house; host or cells: E. coli BL21[DE3]pLysS
T1 sequence (O80920 1-207): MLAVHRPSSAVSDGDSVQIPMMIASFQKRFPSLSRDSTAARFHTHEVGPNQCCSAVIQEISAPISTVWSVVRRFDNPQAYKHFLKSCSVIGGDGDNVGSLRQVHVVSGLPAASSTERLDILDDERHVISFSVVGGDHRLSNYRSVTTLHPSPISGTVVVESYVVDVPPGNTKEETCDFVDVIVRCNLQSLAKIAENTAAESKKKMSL
T1 sequence (Q9CAJ0 23-511 partner): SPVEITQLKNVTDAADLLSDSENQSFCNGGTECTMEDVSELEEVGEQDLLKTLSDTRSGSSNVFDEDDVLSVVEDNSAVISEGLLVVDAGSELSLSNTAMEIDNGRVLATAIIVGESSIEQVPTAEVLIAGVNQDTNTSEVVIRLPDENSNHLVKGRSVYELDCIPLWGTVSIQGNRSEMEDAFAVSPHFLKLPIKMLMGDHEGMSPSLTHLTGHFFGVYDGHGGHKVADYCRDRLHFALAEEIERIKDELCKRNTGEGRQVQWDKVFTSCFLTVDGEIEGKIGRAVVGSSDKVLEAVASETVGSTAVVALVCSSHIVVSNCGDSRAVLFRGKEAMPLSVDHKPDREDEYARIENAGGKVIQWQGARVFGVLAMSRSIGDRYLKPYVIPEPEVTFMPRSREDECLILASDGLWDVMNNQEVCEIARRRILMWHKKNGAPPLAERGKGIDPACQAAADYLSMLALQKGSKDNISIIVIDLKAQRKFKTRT
Protocol: (§1) A family of 62 structurally related N-acyl sulfonamides (Tables I-V) were tested for ABA agonist activity using multiple receptor-mediated PP2C inhibition in vitro assays (Park et al., 2009). […] The constructs utilized for protein expression have been previously described (Okamoto et al. 2013). For constructs encoding 6X-His-fusion proteins (all receptors except PYL11), the coding sequences were of the receptors were cloned in the vector pET28, expressed in BL21[DE3]pLysS E. coli host cells at 18° C. overnight, and subsequently purified from sonicated lysates using Ni-NTA agarose (Qiagen, USA), according to the manufacturer's instructions. PYL11 was constructed as a maltose binding protein fusion in the vector pMAL-c, expressed in BL21┌DE3┐pLysS host cells and purified using amylose resin (New England Biolabs) as described by the manufacturer. Recombinant GST-HAB1 was expressed and purified as described previously (Park et al., 2009). PP2C activity assays were conducted using the fluorogenic phosphatase substrate 4-methylumbelliferyl-phosphate. Recombinant receptors and HAB1 were used to examine ligand-induced PP2C inactivation in response to multiple test compounds. Enzyme inhibition assays were conducted using the following assay conditions: 50 nM GST-PP2C, 100 mM Tris-OAc (pH 7.9), 100 mM NaCl, 1 mM MnCl2, 1% β-mercaptoethanol. […] Because of this, the ratio of each receptor used in the PP2C-inhibitions assays was established empirically as the minimum fold-excess of receptor required to elicit maximal PP2C inhibition at a saturating ABA concentration (10 μM).
(§2) Based on this criterion, we used a ratio of 2:1 receptor in the assays described herein.
(§3) Using the above assay conditions, compounds were tested at 25 μM for agonist activity on PYL4, PYL5, PYL8 and PYL9. […] Consequently, a subset of the compounds was tested at multiple concentrations against 11 receptors so that IC50 values and receptor selectivity profiles could be examined. […] Thus, the N-acylsulfonamide agonists disclosed are selective for monomeric receptors.
(§4) Additional compounds were tested for biological activity following the procedures of Example 1 with minor modifications.
(§5) For these in vitro receptor assays, the compounds listed were tested in in vitro PP2C inhibition assays with 50 uM of the test compound except for ABA (10 uM). IC50s were calculated from dose curves, but only for selected compounds.

PYL5 = target: T2, PYL5 (Arabidopsis thaliana, UniProt Q9FLB1); assay: as above; type: biochemical; details: compound at 25 μM; control without agonist = 100%
T2 construct: 6X-His; made in house; host or cells: E. coli BL21[DE3]pLysS
T2 sequence (Q9FLB1 1-203): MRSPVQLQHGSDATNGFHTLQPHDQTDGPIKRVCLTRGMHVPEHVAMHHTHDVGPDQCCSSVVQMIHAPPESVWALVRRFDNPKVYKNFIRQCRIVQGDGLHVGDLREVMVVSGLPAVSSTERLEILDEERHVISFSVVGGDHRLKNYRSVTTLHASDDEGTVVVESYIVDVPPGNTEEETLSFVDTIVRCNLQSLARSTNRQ
T2 sequence (Q9CAJ0 23-511 partner): T1 sequence (Q9CAJ0 23-511 partner)
Protocol: as §1, §2, §3, §4, §5

PYL8 = target: T3, PYL8 (Arabidopsis thaliana, UniProt Q9FGM1); assay: as above; type: biochemical; details: compound at 25 μM; control without agonist = 100%
T3 construct: 6X-His; made in house; host or cells: E. coli BL21[DE3]pLysS
T3 sequence (Q9FGM1 1-188): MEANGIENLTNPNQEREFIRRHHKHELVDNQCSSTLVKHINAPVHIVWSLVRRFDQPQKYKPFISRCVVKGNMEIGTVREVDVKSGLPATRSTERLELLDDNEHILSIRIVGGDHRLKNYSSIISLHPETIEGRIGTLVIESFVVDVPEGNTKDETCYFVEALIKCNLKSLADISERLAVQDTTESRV
T3 sequence (Q9CAJ0 23-511 partner): T1 sequence (Q9CAJ0 23-511 partner)
Protocol: as §1, §2, §3, §4, §5

PYL9 = target: T4, PYL9 (Arabidopsis thaliana, UniProt Q84MC7); assay: as above; type: biochemical; details: compound at 25 μM; control without agonist = 100%
T4 construct: 6X-His; made in house; host or cells: E. coli BL21[DE3]pLysS
T4 sequence (Q84MC7 1-187): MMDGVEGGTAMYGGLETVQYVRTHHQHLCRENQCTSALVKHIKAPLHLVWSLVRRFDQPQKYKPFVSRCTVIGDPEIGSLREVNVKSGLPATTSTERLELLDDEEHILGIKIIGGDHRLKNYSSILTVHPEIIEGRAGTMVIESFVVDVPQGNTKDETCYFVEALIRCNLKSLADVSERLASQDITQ
T4 sequence (Q9CAJ0 23-511 partner): T1 sequence (Q9CAJ0 23-511 partner)
Protocol: as §1, §2, §3, §4, §5

[1] = tested on: Arabidopsis seed germination and hypocotyl growth; assay: Arabidopsis seed germination and hypocotyl growth; type: in vivo; details: − = none; for Hypocotyl Growth Inhibition / Germination Inhibition: Germination Inhibition II, tested at 10 and 50 uM; for Hypocotyl Growth Inhibition: lowest concentration that inhibited hypocotyl growth in wells where seeds germinated; for minimal effective concentration: Table VIII, tested at 10 or 50 μM, lowest inhibiting concentration; for Germination Inhibition: lowest of the two concentrations that inhibited
Protocol: We germinated seeds from wild type on ½× strength Murashige and Skoog salts growth medium containing either 10 or 50 μM for all 62 compounds as well as 1 μM (+)-ABA and mock controls. […] To investigate if the any of the compounds are sufficient to control vegetative ABA responses, we treated three week old Arabidopsis plants with aqueous solutions containing 0.02% Silwet and either 50 μM of selected N-acylsulfonamides, 50 μM ABA or 0.1% DMSO (the carrier solvent for the compounds tested). The leaf temperatures were subsequently examined using a thermal imaging camera 24 hours after treatment. It is well known that ABA-induced guard cell closure reduces transpiration, which leads to increases in leaf temperatures. It has been estimated that a 1° C. increase in leaf temperature correlates with a decrease in transpiration rates by approximately 50% (Sirault et al., 2009). Since guard cell aperture is the primary determinant of transpiration rates, thermal imaging is a useful way to indirectly infer relative transpiration rates and, indirectly, relative degrees of guard cell opening at the whole plant level.
as §4
For the germination inhibition experiment, the compounds were tested at 10 and 50 uM. The amounts shown are the lowest of the two concentrations that either inhibited germination or hypocotyl growth in wells where seeds germinated.
For the germination test, the compounds were tested at 1, 5, 10, 25 and 50 uM. The amounts shown are the lowest of the concentrations that either inhibited germination or hypocotyl growth in the wells where seeds germinated.

[2] = read-out: Hypocotyl Growth Inhibition
[3] = ABA at 1 μM, read-out: Germination Inhibition

SMILES	PP2C Activity (25 μm) PYL4 (PYL4)	PP2C Activity (25 μm) PYL5 (PYL5)	PP2C Activity (25 μm) PYL8 (PYL8)	PP2C Activity (25 μm) PYL9 (PYL9)	Hypocotyl Growth Inhibition [1]	minimal effective concentration [1, 2]	Germination Inhibition [1]	minimal effective concentration [1, 3]
COc1ccccc1C1(C(=O)NS(=O)(=O)Cc2ccc(C#N)cc2)CC1 [Compound 41]	93%	27%	89%	81%	10 µM	10 µM	–	–
CC(C)(C(=O)NS(=O)(=O)Cc1ccc(C#N)cc1)c1ccccc1F [Compound 8]	91%	41%	77%	69%	10 µM	10 µM	50 µM	50 µM
CC(C)(C(=O)NS(=O)(=O)Cc1ccc(C#N)cc1)c1cccc(Cl)c1 [Compound 15]	96%	51%	57%	46%	10 µM	10 µM	–	–
CC(C)(C(=O)NS(=O)(=O)Cc1ccc(C#N)cc1)c1cccc(Br)c1 [Compound 9]	91%	43%	58%	47%	10 µM	10 µM	–	–
CC(C)(C(=O)NS(=O)(=O)Cc1ccc(F)cc1)c1ccccc1 [Compound 4]	97%	106%	59%	36%	50 µM	50 µM	–	–
CC(C)(C(=O)NS(=O)(=O)Cc1ccccc1C#N)c1ccccc1 [Compound 1]	96%	106%	89%	83%	50 µM	50 µM	–	–
COc1ccc(C2(C(=O)NS(=O)(=O)Cc3ccc(C#N)cc3)CCCC2)cc1 [Compound 39]	98%	110%	71%	66%	10 µM	10 µM	50 µM	50 µM
CCC(CC)(C(=O)NS(=O)(=O)Cc1ccccc1C#N)c1ccccc1 [Compound 17]	85%	96%	95%	94%	50 µM	50 µM	–	–
